According to patent US20050009894A1 (Aventis Pharma S.A., priority 2001, published 2005):
pIC50: −log10 of the molar value. Like-named read-outs stand apart in the source and are kept apart here.

Biological target: T1, human KDR enzyme (Homo sapiens, UniProt P35968)
T1 construct: The cytoplasmic domain of human KDR enzyme is cloned in the form of a GST fusion; GST; made in house; host or cells: SF21 insect cells (baculovirus, pFastBac)
Experiment: Phosphorylation of the substrate PLCγ by the enzyme KDR in vitro (flashplate technique)
Type: biochemical
Conditions: for pIC50: Table VII, degrees of activity by IC50 range, read-out: Activity
Outline: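 GST-fused human KDR cytoplasmic domain (Sf21 baculovirus, ~60% pure; 100 ng/well) phosphorylating 2 μg GST-PLCγ SH2-SH3 fragment in MOPS pH 7.2 with MgCl2/MnCl2, 1 h at 37° C. Started with γ33P-ATP plus cold ATP (2 μM in start solution); flashplate radioactivity. % inhibition vs no-compound control; IC50 from dose-response curves.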

T1 sequence (P35968 786-1356 limits assumed): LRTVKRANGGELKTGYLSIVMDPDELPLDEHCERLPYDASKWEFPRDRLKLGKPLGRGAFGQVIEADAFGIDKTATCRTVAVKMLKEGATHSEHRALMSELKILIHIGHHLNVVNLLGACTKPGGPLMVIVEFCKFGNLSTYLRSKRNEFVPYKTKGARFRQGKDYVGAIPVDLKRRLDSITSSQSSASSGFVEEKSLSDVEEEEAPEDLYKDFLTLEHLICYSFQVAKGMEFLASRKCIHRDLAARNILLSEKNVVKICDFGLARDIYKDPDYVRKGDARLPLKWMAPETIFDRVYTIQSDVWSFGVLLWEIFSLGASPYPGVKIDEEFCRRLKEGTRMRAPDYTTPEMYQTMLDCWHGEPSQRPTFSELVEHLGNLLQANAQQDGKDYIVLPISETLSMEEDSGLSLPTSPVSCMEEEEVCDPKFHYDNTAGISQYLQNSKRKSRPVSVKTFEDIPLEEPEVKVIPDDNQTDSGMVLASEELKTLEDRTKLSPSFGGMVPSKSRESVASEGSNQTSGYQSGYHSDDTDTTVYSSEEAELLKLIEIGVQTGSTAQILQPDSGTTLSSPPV

SMILES | pIC50 | IC50 (read-out: IC50 (μM) on inhibition of the phosphory-lation of PLCγ by KDR)
O=C(COc1cc(-c2nc3ccccc3[nH]2)[nH]n1)C(F)(F)C(F)(F)F [Example 199, 1-[5-(1H-Benzoimidazol-2-yl)-1H-pyrazol-3-yloxy]-3,3,4,4,4-pentafluoro-butan-2-one] | < 5.52 | 
O=C(COCc1ccccc1)Oc1cc(-c2nc3ccccc3[nH]2)[nH]n1 [Example 216, Benzyloxy-acetic acid 5-(1H-benzoimidazol-2-yl)-1H-pyrazol-3-yl ester] | < 5.52 | 
O=C(NCc1cccc(C(F)(F)F)c1)c1cccc2nc(-c3n[nH]c4ccccc34)[nH]c12 [Example 88, 2-(1H-Indazol-3-yl)-3H-benzoimidazole-4-carboxylic acid 3-trifluoromethyl-benzylamide] | < 5.52 | 
CC(C)(C)c1ccc(-c2ccc3nc(-c4[nH]nc5ccccc45)[nH]c3c2)cc1 [Example 118, 3-[6-(4-tert-Butyl-phenyl)-1H-benzoimidazol-2-yl]-2H-indazole] | < 5.52 | 
CC(=O)Nc1cccc(OCCCNC(=O)c2ccc3[nH]c(-c4n[nH]c5ccccc45)nc3c2)c1 [Example 55, 2-(1H-Indazol-3-yl)-1H-benzoimidazole-5-carboxylic acid [3-(3-acetylamino-phenoxy)-propyl]-amide] | 5.52 to 6.52 | 
O=C(NCc1cccc2ccccc12)c1ccc2[nH]c(-c3n[nH]c4ccccc34)nc2c1 [Example 32, 2-(1H-Indazol-3-yl)-1H-benzoimidazole-5-carboxylic acid (naphthalen-1-ylmethyl)-amide] | 5.52 to 6.52 | 
O=C(NCc1ccc(Oc2ccccc2)cc1)c1cccc2nc(-c3n[nH]c4ccccc34)[nH]c12 [Example 84, 2-(1H-Indazol-3-yl)-3H-benzoimidazole-4-carboxylic acid 4-phenoxy-benzylamide] | < 5.52 | 
c1ccc2c(-c3nc4ccc(-c5ccsc5)cc4[nH]3)[nH]nc2c1 [Example 110, 3-(6-Thiophen-3-yl-1H-benzoimidazol-2-yl)-2H-indazole] | 5.52 to 6.52 | 
CN1CCN(C(=O)c2ccc3[nH]c(-c4n[nH]c5ccccc45)nc3c2)CC1 [Example 151, [2-(1H-Indazol-3-yl)-1H-benzoimidazol-5-yl]-(4-methyl-piperazin-1-yl)-methanone] | 5.52 to 6.52 | 
O=C(NCc1c(F)cccc1F)c1ccc2[nH]c(-c3n[nH]c4ccccc34)nc2c1 [Example 156, 2-(1H-Indazol-3-yl)-1H-benzoimidazole-5-carboxylic acid 2,6-difluoro-benzylamide] | 5.52 to 6.52 | 

Further lines, results first:

pIC50 | IC50 (read-out: IC50 (μM) on inhibition of the phosphory-lation of PLCγ by KDR) | SMILES
5.52 to 6.52 |  | O=C(NCc1ccc(C(F)(F)F)nc1)c1ccc2[nH]c(-c3n[nH]c4ccccc34)nc2c1 [Example 172, 2-(1H-Indazol-3-yl)-1H-benzoimidazole-5-carboxylic acid (6-trifluoromethyl-pyridin-3-ylmethyl)-amide]
5.52 to 6.52 |  | COc1cccc(CNC(=O)c2cccc3nc(-c4n[nH]c5ccccc45)[nH]c23)c1 [Example 82, 2-(1H-Indazol-3-yl)-3H-benzoimidazole-4-carboxylic acid 3-methoxy-benzylamide]
5.52 to 6.52 |  | O=C(NCc1ccc(C(F)(F)F)cc1)c1ccc2[nH]c(-c3n[nH]c4ccccc34)nc2c1 [Example 33, 2-(1H-Indazol-3-yl)-1H-benzoimidazole-5-carboxylic acid 4-trifluoromethyl-benzylamide]
5.52 to 6.52 |  | O=C(NCc1ccc(-c2cccs2)s1)c1ccc2[nH]c(-c3n[nH]c4ccccc34)nc2c1 [Example 57, 2-(1H-Indazol-3-yl)-1H-benzoimidazole-5-carboxylic acid ([2,2′]bithiophenyl-5-ylmethyl)-amide]
5.52 to 6.52 |  | O=C(NCc1ccccc1[N+](=O)[O-])c1ccc2[nH]c(-c3n[nH]c4ccccc34)nc2c1 [Example 67, 2-(1H-Indazol-3-yl)-1H-benzoimidazole-5-carboxylic acid 2-nitro-benzylamide]
 | 0.26 µM | O=C(NCC1CCCCC1)c1ccc2[nH]c(-c3n[nH]c4ccccc34)nc2c1 [Example 11, 2-(1H-Indazol-3-yl)-1H-benzimidazole-5-carboxylic acid N-(cyclohexylmethyl)amide]
